The values that follow come from ChEMBL document CHEMBL1149471, “Pharmacophore-based virtual screening: the discovery of novel methionyl-tRNA synthetase inhibitors” (Bioorg Med Chem Lett, 2006).

pIC50: −log10 of the molar value.

In the experiment the target is Methionine--tRNA ligase (Escherichia coli K-12, UniProt P00959). In words: Inhibition of Escherichia coli MetRS assessed as decrease in [35S]methionyl tRNAMet production by SPA.
Methionine--tRNA ligase, sequence (P00959 whole entry): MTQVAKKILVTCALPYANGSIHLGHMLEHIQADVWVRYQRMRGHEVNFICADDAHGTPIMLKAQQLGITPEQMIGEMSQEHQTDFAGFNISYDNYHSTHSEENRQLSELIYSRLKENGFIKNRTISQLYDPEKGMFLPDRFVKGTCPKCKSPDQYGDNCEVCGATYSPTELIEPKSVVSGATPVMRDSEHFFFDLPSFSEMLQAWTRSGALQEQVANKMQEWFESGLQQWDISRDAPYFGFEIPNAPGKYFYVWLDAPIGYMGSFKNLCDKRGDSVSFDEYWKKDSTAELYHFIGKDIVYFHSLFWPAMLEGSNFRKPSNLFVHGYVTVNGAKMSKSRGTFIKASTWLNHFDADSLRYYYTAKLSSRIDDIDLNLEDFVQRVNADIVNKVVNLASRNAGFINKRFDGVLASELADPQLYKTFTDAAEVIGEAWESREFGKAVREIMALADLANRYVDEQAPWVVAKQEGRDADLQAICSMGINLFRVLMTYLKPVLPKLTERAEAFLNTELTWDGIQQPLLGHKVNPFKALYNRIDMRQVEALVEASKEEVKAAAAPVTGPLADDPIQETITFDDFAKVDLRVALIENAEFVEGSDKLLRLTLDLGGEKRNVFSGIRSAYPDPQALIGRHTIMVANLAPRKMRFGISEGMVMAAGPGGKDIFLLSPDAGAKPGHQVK
Consider `O=C(CC(=O)Nc1ccccc1C(=O)O)Nc1nc2ccc(Br)cc2s1`, for which the pIC50 (usually −log10 of the IC50, conventionally taken in molar units) is 4.52.
With `O=C(CNC(=O)c1cccs1)N/N=C/c1ccc(C(=O)O)cc1`, the pIC50 is 6.63.
Next, `NS(=O)(=O)c1ccc(CCNC(=S)Nc2cccc(C(F)(F)F)c2)cc1`: 4.32; `O=C(CNC(=O)c1cccc(Br)c1)N/N=C/c1ccc(C(=O)O)cc1`: 4.64.
